Laboratory results taken from ChEMBL document CHEMBL1157539, “Thousands of chemical starting points for antimalarial lead identification” (Nature, 2010).
Residues, ends and D or L forms follow the SMILES beside them. *: point of attachment. Boc = CC(C)(C)OC(=O)*

test system: Plasmodium falciparum; experiment: GSK_TCMDC: Inhibition of Plasmodium falciparum 3D7 in whole erythrocytes, using parasite LDH activity as an index of growth.; assay type: functional, organism-based; conditions: Plasmodium falciparum, 3D7

SMILES	XC50 [nM]
CC(C)(C)c1cc([N+](=O)[O-])cc(C(=O)Nc2ccccc2C(F)(F)F)c1O	652
O=S(=O)(Nc1cccc(CCN2CCC(N3CCCCC3)CC2)c1)c1ccc(Oc2ccccc2)cc1	769
O=C(C1CC1)N1c2ccccc2CCc2ccccc21	833
Cc1cc(N)nc2ccc(-c3ccc(CCN)cc3)cc12	621
O=C(N[C@@H](Cc1ccccc1)[C@H](O)CNC1CCCCC1)c1cc(C2CCCC2)cc(N2CCCC2=O)c1	169
COc1ccc(C2C(C(=O)Nc3ccccc3)=C(C)Nc3c(C(=O)Nc4ccccc4)cnn32)cc1 (configuration not stated)	1310
Cc1ccc2[nH]c(C)cc(=NN=Cc3ccc(Cl)cc3)c2c1	992
COc1cc2nccc(Nc3ccc4c(cnn4Cc4cccc(F)c4)c3)c2cc1OC	237
N=C1N=C(N)NC2(CCCCC2)N1OCCCOc1cccc2ccccc12	3.2
O=C(Nc1nc(-c2ccccn2)cs1)c1ccc(S(=O)(=O)N2CCc3ccccc32)cc1	830
FC(F)(F)c1ccc2[nH]c(-c3ccc(-c4cccc(CNCc5ccccc5)c4)s3)nc2c1	153
O=C(Nc1ccc([N+](=O)[O-])cc1Cl)c1cc(Br)cc(Cc2ccccc2)c1O	1290
COc1ccc(Nc2ncc3c(-c4cccc(NC(=O)Cc5cccc(F)c5)c4)c[nH]c3n2)cc1OC	567
CNCCNCc1cccc(-c2ccc(-c3nc4cccc(C)c4[nH]3)s2)c1	953
COc1cc(C2=NN(S(=O)(=O)c3c(Cl)cc(Cl)cc3Cl)CCCC2)ccc1Cl	291
CN(C)c1nc2cc(-n3cnc4cc(-c5ccc(Cl)cc5)sc4c3=O)ccc2n1CCCN1CCCC1	848
Cc1ccc(F)c(CN2CCC(N3CC(c4ccccc4)(c4ccccc4)OC3=O)CC2)c1Cl	593
O=C(/C=C/c1ccc(Cl)c(Cl)c1)NCc1ccc(CN2CCC(c3c[nH]c4ccccc34)CC2)cc1	711
CS(=O)(=O)Nc1ccc2[nH]cc(C3CCN(CC4CCC(NC(=O)/C=C/c5ccc(Cl)c(Cl)c5)CC4)CC3)c2n1 (configuration not stated)	780
COc1cc(F)c2ncc(F)c([C@@H](O)CN3CCC(NCc4cc5c(cn4)OCCO5)CC3)c2c1	477
COC(=O)/C=C/c1ccc(CC(C)NCC(O)c2cccc(Cl)c2)cc1 (configuration not stated)	751
CN(C)C(=O)c1ccc(CN(Cc2ccc3c(c2)OCCO3)Cc2ccc3c(c2)OCO3)cc1	175
OCCOCn1cnc2cnc(N[C@H]3OC[C@H](O)[C@@H](O)[C@@H]3O)nc21	1640
OC1CCC(Nc2ccc3ncc(-c4ccc(Cl)cc4)n3n2)CC1 (configuration not stated)	824
CN(CCC(O)c1ccc(Cl)c(Cl)c1)CC1CC1C(=O)c1ccccc1 (configuration not stated)	794

SMILES	XC50 [nM]
CC(C)(C)c1nn(-c2ccc(Cl)cc2)c2[nH]c(=O)c(CNC3CCCC3)cc12	234
CC(=Nc1ccc(Cl)c(Cl)c1)N(C)C	540
O=S(=O)(NCCN1CCCC1)c1cccc(-c2cccc(CNCCc3cccs3)c2)c1	753
Cc1cc(N[C@@H](Cc2ccccc2)C(=O)Nc2ccccc2)nc(NCCN2CCCC2)n1	1810
CC(C)CNCc1cccc(-c2cccc(CN(C(=O)NC3CCCCC3)C3CCN(Cc4ccccc4)CC3)c2)c1	821
COc1ccc2oc(=O)c(C#N)c(O)c2c1	211
NC1CCN(Cc2cccc(-c3ccc(-c4nc5cc(F)ccc5[nH]4)cc3)c2)C1 (configuration not stated)	596
Cc1cc(NCCc2ccc(O)cc2)nc(NCC(c2ccccc2)c2ccccc2)n1	320
CCCCNC(=O)[C@H](CC1CCCCC1)NC(=O)c1ccc(O)c(-c2ccc(OC)cc2)c1	920
CCn1c(-c2nonc2N)nc2cnc(Oc3cccc(NC(=O)c4ccc(OCCCN5CCCCC5)cc4)c3)cc21	925
Cc1cc2nc(-c3ccc(/C=C/C(=O)NC4CCN(Cc5ccccc5)CC4)cc3)[nH]c2cc1C	588
C=C[C@H]1CN2CC[C@H]1C[C@@H]2[C@@H](O)c1ccnc2ccc(OC)cc12 [QUINIDINE]	118
COc1cc2c(cc1C(F)(F)F)N(C(=O)Nc1cc(F)cc(-c3cncnc3)c1)CC2	500
N#Cc1ccc(N(CCOc2ccc(Cl)cc2)Cc2ccccc2C(F)(F)F)cc1C(F)(F)F	656
COC(=O)CC[C@H](NC(=O)[C@H](C)NC(=O)OC(C)(C)C)C(=O)OC (Boc-Ala-Glu(OMe)-OMe)	819
N#Cc1ccc(CN2CCC(Oc3ccc(NC(=O)c4ccco4)cc3Cl)CC2)cc1	379
O=C(O)CCc1ccc(-c2c[nH]c3ncc(-c4ccc5ncccc5c4)cc23)cc1	302
O=C(Nc1ccc2c(c1)CCN2C1CCN(Cc2csc3ccccc23)C1)c1ccco1 (configuration not stated)	322
O=C(/C=C/c1ccc(Cl)c(Cl)c1)NCCCCCN1CCCC(CNC(=O)Nc2ccc(Oc3ccccc3)cc2)C1 (configuration not stated)	783
CN1CCN(CCCN(Cc2cccc(-c3cccc(CNC4CCCC4)c3)c2)C(=O)CCC2CCCC2)CC1	675
Cc1c(C(=O)Nc2cc(Sc3ccc(F)cc3)cc([N+](=O)[O-])c2)sc2ncn(Cc3ccccc3F)c(=O)c12	798
c1cc(-c2ccc(CNC3CC3)cc2)cc(-c2nc3ccccc3[nH]2)c1	1660
FC(F)(F)c1cccc(C=NNc2nc3ccccc3[nH]2)c1	148
COc1ccc(C(=O)N2CCN(c3ccc([N+](=O)[O-])c(NC4CC4)c3)CC2)cc1Br	797
COC(=O)c1cccc(CNCc2ccc(-c3cccc(-c4nc5cccc(C)c5[nH]4)c3)cc2)c1	306

SMILES	XC50 [nM]
CSc1nc2cc3c(cc2n1C(=O)c1ccc(C)cc1)OCCO3	166
CCc1ccc(CN2CCC(CN(c3ccc(N4CCOCC4)c(F)c3)S(=O)(=O)c3ccc(C(C)(C)CC)cc3)CC2)cc1	706
O=C(Cn1c(SCc2cccc(F)c2F)cc(=O)c2ccccc21)N(CCN1CCCCC1)Cc1ccc(-c2ccc(C(F)(F)F)cc2)cc1	664
CC(=O)Nc1ccc(CN2CCC(CNC(=O)c3cc(-c4cccc(Cl)c4)cs3)C2)cc1 (configuration not stated)	1120
CCCCCCCCNCC(O)c1ccc(Cl)c(Cl)c1 (configuration not stated)	819
CCCCN1CCN(c2cc(NS(=O)(=O)c3cccc(C(=O)Nc4ccc(C(F)(F)F)cc4)c3)ccc2OC)CC1	685
Cc1[nH]c2ccccc2c1C(=O)CSc1nn(-c2ccccc2)c(=S)s1	699
Cc1ccc(CNC(=O)[C@H](CCCN)Nc2nc(NCC3CCCCC3)ncc2C)cc1	987
COc1ccc2nc3cc(Cl)ccc3c(NCCN3CCN(C)CC3)c2c1	124
C[C@@H](NC(=O)c1nn(-c2ccc(Cl)cc2)c(=O)c2ccccc12)C(C)(C)C	1120
COc1ccc2nccc([C@@H](O)CN3CCC(NC(=O)c4cc5ccccc5[nH]4)CC3)c2c1	969
CCCCn1c(Sc2ccc(C#N)c([N+](=O)[O-])c2)nnc1-c1cccc(Cl)c1	762
Cc1[nH]c2cc(F)ccc2c1C1=CCN(CCCCC2(C)C(=O)Nc3c(F)cccc32)CC1 (configuration not stated)	397
COc1ccc(NC(=O)[C@H](Cc2ccccc2)Nc2cc(C)nc(NCCc3ccccc3)n2)cc1	1240
O=C(NC1CCCCN(Cc2ccccc2O)C1)c1cc(F)cc(F)c1 (configuration not stated)	1170
Cc1cc(N[C@@H](Cc2ccccc2)C(=O)NCCOc2ccccc2)nc(NCCc2ccc(F)cc2)n1	603
CC1(C)NC(N)=NC(=N)N1OCCCOc1cc(Cl)cc(Cl)c1	3.2
O=C(/C=C/c1cccc(OC(F)(F)F)c1)NCCCCCN1CCC(c2c[nH]c3ccccc23)CC1	958
CCn1c2ccccc2c2cc(Cc3cnc(N)nc3N)ccc21	221
Cc1cc(=NN=Cc2cccc(F)c2)c2ccc(F)cc2[nH]1	229
CS(=O)(=O)N1CC2(CCN(CCC(NC(=O)Nc3ccccc3)c3ccc(Cl)c(Cl)c3)CC2)c2ccccc21 (configuration not stated)	823
NCC1CCCN1Cc1ccc(-c2ccc(-c3nc4cc(C(F)(F)F)ccc4[nH]3)cc2)cc1 (configuration not stated)	959
COc1ccc2ccccc2c1CCCCN1CCN(CC(c2ccc(F)cc2)N2CCN(C3CCCC3)CC2)CC1 (configuration not stated)	772
Cc1cccc(-c2nn(-c3ccccc3)c3[nH]c(=O)c(CNC4CCCC4)cc23)c1	759
Oc1cc2ccccc2cc1CNC1CCCCC1	586

SMILES	XC50 [nM]
COc1ccc2ncc(F)c(CCN3CC(O)C(CNCc4ccc5oc(=O)ccc5c4)C3)c2n1 (configuration not stated)	949
COc1cc(Cc2cnc(N)nc2N)c2ccsc2c1OC	1070
Nc1ncc(-c2cn[nH]c2)cc1-c1nc2cc(Cl)cnc2[nH]1	915
Oc1ccc(-c2ccccc2)cc1CN1CCCCC1	903
CCc1ccc(Cc2cnc3nc(N)nc(N)c3c2C)cc1CC	285
CN(C)C(=O)c1ccc(CN(Cc2cccc(OC(C)(C)C)c2)Cc2ccc3c(c2)OCCO3)cc1	571
CCCCCc1cnc2nc(N)nc(N)c2c1	1230
COc1ccc(-c2nc(NC(=O)CS(=O)(=O)c3ccccc3)sc2C)cc1	596
COc1ccc(N(c2nc(-c3cc(Cl)ccc3Cl)cs2)C2CCNCC2)cc1	1090
COc1ccc(C(=O)NCC(C)(C)c2nc(-c3ccc(Cl)c(O)c3)c(-c3ccncc3)[nH]2)cc1OCCN(C(C)C)C(C)C	643
O=C(C=Cc1ccc(Cl)c(Cl)c1)NCCCCCN1CCCC(CCCNS(=O)(=O)c2ccc(Br)cc2)C1 (configuration not stated)	955
Cc1cccc2nc(-c3cccc(-c4ccc(CNCc5ccc(S(C)(=O)=O)cc5)cc4)c3)[nH]c12	184
CN(C(=O)/C=C/c1c(Cl)cccc1Cl)C1CCN(CCCCCNC(=O)/C=C/c2ccc(Cl)c(Cl)c2)CC1	360
Fc1ccc2[nH]c(-c3ccc(-c4ccc(CN5CCCCC5)cc4)s3)nc2c1	602
CCN1CCN(C(=O)NC(C(=O)N2CCCC(COc3ccc(Cc4ccccc4)cc3)C2)c2cccs2)C(=O)C1=O (configuration not stated)	479
CC[C@H]1CN2CC[C@@H]1C[C@H]2[C@H](O)c1ccnc2ccc(Cl)cc12	119
CCNc1cc(C(=O)N[C@@H](Cc2ccccc2)[C@H](O)CNC(CC)c2cccc(Cl)c2)cc(N2CCCCS2(=O)=O)c1 (some centres not stated)	51.7
c1ccc(-c2cc(NCCCCCCCCNc3cc(-c4ccccc4)nc4ccccc34)c3ccccc3n2)cc1	395
COc1ccc(N2CCN(CCCCNC(=O)c3ccc(NC(=O)c4cc(C(F)(F)F)cc(C(F)(F)F)c4)cc3)CC2)cc1OC	221
FC(F)(F)Oc1ccc(Nc2cc(-c3ccncc3)nc(-c3cccnc3)n2)cc1	672
CC(C)(C)c1ccc(CN2CCCCC(NC(=O)c3cc(-c4cccc(Cl)c4)cs3)C2)cc1 (configuration not stated)	999
Cc1c(N)ccc2[nH]c(-c3ccc(N)cc3)nc12	1210
